Measured values from patent publication US20070105808A1, “Inhibition of histone deacetylase” (MethylGene, Inc., priority 1999, published 2007).
Where a SMILES comes first, the peptide text is derived from it. [ ]: non-standard residue; d: D form. Aoe = N[C@@H](CCCCCC(=O)[C@@H]1CO1)C(=O)O; d = 2'-deoxy (DNA); m = 2'-O-methyl

What was measured:
HDAC-1 protein = assay: Western blotting analysis of HDAC-1 protein expression in transfected T24 cells; format: cell-based, human; details: FIG. 4; second generation oligonucleotides, T24 cells transfected twice with 50 nM, lysates 24 h after second transfection
Description: (§1) To do this, T24 cells were transfected with oligonucleotide using lipofectin as described above. Twenty-four hours later, the cells were lysed according to standard procedures. The whole cell extracts (50 μg) were resolved on 7-15% gradient SDS/PAGE, transferred to PVDF membrane (Amersham, Arlington Heights, Ill.), and subjected to Western blotting analysis with rabbit polyclonal HDAC1- and HDAC-2 specific antibodies (1:500, Santa Cruz Biotech., Santa Cruz, Calif.) were used. Detection was accomplished with a secondary anti-rabbit IgG-HR peroxidase antibody and an enhanced chemiluminescence detection kit (Amersham) accordingly to manufacturer's instructions.
T24 cells were transfected twice as described above with 50 nM oligonucleotide. Cell lysates were prepared twenty-four hours following the second transfection, resolved on 7-15% gradient SDS-PAGE, and transferred to PVDF membrane. The PVDF membrane blot was first blotted with anti-HDAC-1 antibody. Following detection with horseradish peroxidase-labelled secondary antibody and enhanced chemiluminescence, the blot was stripped, and re-probed with anti-HDAC-2 antibody. Following detection, the blot was stripped for a second time and re-probed with an actin-specific antibody to verify equal protein loading in the lanes.

HDAC-2 protein = assay: Western blotting analysis of HDAC-2 protein expression in transfected T24 cells; format: cell-based, human; details: FIG. 3; 50 nM second generation oligonucleotide, T24 cells transfected twice, 48 hours after the first transfection
Description: as §1
Twenty-four hours later, the cells were transfected a second time with the same amount of the same oligonucleotide. Twenty-four hours after this (i.e., 48 hours after the first transfection), cellular proteins were prepared, resolved on 7-15% gradient SDS-PAGE, and subjected to Western blotting analysis as described in Example 1 with rabbit polyclonal HDAC2 specific antibody (1:500, Santa Cruz Biotech). Following blotting with the secondary anti-rabbit IgG-HR peroxidase antibody and visualization with the enhanced chemiluminescence detection kit (Amersham), the blot was stripped and re-probed with an antibody specific to actin to verify equal loading of all wells (data not shown). […]

[1] = system: cell cycle progression in cells; details: literature reports; cited from earlier work
histone deacetylase = details: Yoshida et al.; cited from earlier work

5′-CAAUCGTCAGAGACTCCGAA-3′ (antisense CAAUCGTCAGAGACTCCGAA; sugars from the 5' end m4 d12 m4, backbone and methylation of C not given here) [MG2609, mismatch control oligonucleotide of HDAC-1 (MG2608)]
inhibition of HDAC-1 protein expression (HDAC-1 protein): failed to inhibit

5′-CUCCTTGACTGTACGCCAUG-3′ [MG2636]
inhibition of HDAC-2 protein expression (HDAC-2 protein): able to inhibit HDAC-2 protein expression

C/C=C1\NC(=O)[C@H]2CSSCC/C=C/[C@H](CC(=O)N[C@H](C(C)C)C(=O)N2)OC(=O)[C@H](C(C)C)NC1=O [FR901228]
cell cycle progression [1]: inhibit cell cycle progression in cells

CC(/C=C/C(=O)NO)=C\[C@@H](C)C(=O)c1ccc(N(C)C)cc1 [Trichostatin A]
cell cycle progression [1]: arrest cell cycle progression in cells in the G1 and G2 phases
inhibition of histone deacetylase activity (histone deacetylase): inhibit histone deacetylase activity

O=C(CCCCCCC(=O)Nc1ccccc1)NO [suberoylanilide hydroxamic acid]
cell cycle progression [1]: inhibit cell cycle progression in cells

O=C1N[C@@H](Cc2ccccc2)C(=O)N2CCC[C@@H]2C(=O)N[C@@H](CCCCCC(=O)[C@@H]2CO2)C(=O)N[C@H]1Cc1ccccc1 [trapoxin] (cyclo(FF[dP][Aoe]))
cell cycle progression [1]: inhibit cell cycle progression in cells

CC(/C=C/C(=O)NO[C@@H]1O[C@H](CO)[C@@H](O)[C@H](O)[C@H]1O)=C\[C@@H](C)C(=O)c1ccc(N(C)C)cc1 [trichostatin C]
cell cycle progression [1]: inhibit cell cycle progression in cells

depudecin
cell cycle progression [1]: inhibit cell cycle progression in cells
